Consider four compounds from patent US9708638B1, “Protease assay method using site-specific fluorescence dye labeled protein as substrate” (EZBiolab, priority 2014, dated 2017).

Holding throughout (format): biochemical
Assay [1] concerns ADAM 17. As to the kind of experiment: Fluorescence polarization assay of cleavage of N-terminal FITC labeled pro-TNF-α by Adam 17. The conditions noted are these: inhibitor at final concentration 10 uM; FIG. 3 Trace B. The procedure:
(§1) Cleavage of N-terminal FITC labeled pro-TNF-α was performed by a fluorescence polarization assay. The assay was performed with a SpectraMax fluorescence plate reader in 96-well format. In a typical assay, 1 μM substrate protein was preincubated at 37° C. for 20 minutes. The reaction was initiated by addition of Adam 17 to the substrate solution. The final concentration of Adam 17 was 48 nM. The total reaction volume was […]. The reaction buffer was 50 mM Tris-HCl, pH 7.5, 2.5 μM ZnCl2, 0.005% Brij-35. In inhibition assays, the inhibitor was preincubated with its target protein for 30 minutes before reaction was initiated.
(§2) The concentration of product was calculated according to equation (1): [P]=(F[S]−Fs[S])/(Fp−Fs); where [P] is the concentration of product, F is the experimental recorded fluorescence polarization value, [S] is the total concentration of substrate and Fs and Fp are fluorescence polarization values of substrate and product, respectively. Fp is determined from a synthetic peptide with an identical sequence to the N-terminal fragment of the cleavage products.
(§3) To initiate the cleavage reaction, 1 ul ADAM 17 (0.1 mg/ml) stock solution may be added to 100 ul FITC-[pro-TNF-α] in 20 mM Tris-HCL, PH 8.5. The final concentration of FITC-[pro-TNF-α] is about 1 uM.
A general note: In fluorescence polarisation assays a small probe gives low polarisation when free and higher when bound to something large.

For assay [2], the target named is ADAM 17 (Homo sapiens, UniProt P01375). The assay is described as above. The protocol: as §1, §2, §3
Assay [3] has as its target ADAM 17 (Homo sapiens, UniProt P78536). As to the kind of experiment: Cleavage of peptide substrate by Adam 17 (HPLC). The conditions noted are these: HPLC results. The protocol: Cleavage of peptide substrates: Two peptide substrates were used in this study. PS1 is Mca-PLAQAV-Dpa-RSSSR-NH2 (22), a fluorescence resonance energy transfer based substrate, the activity was measured by fluorescence intensity change upon cleavage. PS2 may be the non-fluorescence version of PS1. For PS1, in a typical assay, 10 μM substrate was preincubated at 37° C. for 20 minutes. The reaction was initiated by addition of Adam 17 to the substrate solution at the final concentration of 16 nM. The total reaction volume may be 100 μl. The reaction buffer may be 50 mM Tris-HCl, pH 9.0, 2.5 μM ZnCl2, 0.005% Brij-35. In inhibition assays, inhibitor was preincubated with peptide substrate for 30 minutes. For PS2, reaction conditions were identical to PS1.
Referring to FIGS. 13 and 14, TNF-α Inhibitor is a small molecule that blocks interaction of TNF-α with its receptor by binding to TNF-α. This compound may affect the activity of Adam 17 to convert pro-TNF-α to TNF-α. Referring to FIG. 13, it is shown that at a concentration of about 200 μM, TNF-α inhibitor reduces the reaction rate by about 40%, which is validated by the electrophoresis assay results shown in FIG. 14. […] Based on the established direct binding between the compound and TNFα, it is believed that the inhibition effect is caused by the interaction of the compound to pro-TNFα.

The target in assay [4] is T1, BACE (Homo sapiens, UniProt P56817).
T1 construct: made in house; host or cells: E. coli
As to the kind of experiment: Fluorescence polarization assay of cleavage of APP365-699-[5-TAMRA] by BACE. The conditions noted are these: inhibitor included in the cleavage reaction; FIG. 10 Trace B. The text has this: Referring to FIGS. 9-11, in this example Beta-secretase (BACE) is one of the two proteases that cleave amyloid precursor protein (APP) to produce amyloid peptide 1-42. Human APP is a 733 residue protein. Full length of APP is consisted of several domains. BACE cleaves APP between residue 671 and 672. In this example, a fluorescence dye is specifically conjugated to the C-terminal end of APP365-699 that contains two independent folded domains. Gene encoding APP365-699 is fused to the N-terminal end of intein. After MESNA mediated self cleavage between APP365-699 and intein, a thioester group, is added to the C-terminal end of APP365-699. A fluorescence dye conjugated small peptide, CysGlySerLys-[5-TAMRA], is then ligated to the C-terminal end of APP365-699 to produce fluorescent dye labeled APP365-699:
As a result, fluorescence polarization of 5-TAMRA reduces. […] It proves that APP365-699-[5-TAMRA] may be used as a substrate for BACE activity assay by recording the fluorescence polarization. […] Thus, APP365-699-[5-TAMRA] may be used as a substrate for BACE activity assay by recording the fluorescence polarization and the assay may be used to identify its inhibitors.

Assay [5] deals with T2, Renin (Homo sapiens, UniProt P00797).
T2 sequence (P00797 67-406): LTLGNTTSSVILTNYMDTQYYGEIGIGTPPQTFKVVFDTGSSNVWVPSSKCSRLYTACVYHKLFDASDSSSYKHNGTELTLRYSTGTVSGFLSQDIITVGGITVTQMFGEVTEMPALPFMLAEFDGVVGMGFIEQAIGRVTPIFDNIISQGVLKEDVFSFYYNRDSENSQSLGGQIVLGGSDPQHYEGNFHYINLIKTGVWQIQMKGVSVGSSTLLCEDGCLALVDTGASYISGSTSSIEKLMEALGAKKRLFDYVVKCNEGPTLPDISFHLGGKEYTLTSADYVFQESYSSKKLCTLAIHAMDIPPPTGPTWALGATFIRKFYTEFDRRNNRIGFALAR
Nature of the assay: Fluorescence polarization assay of cleavage of FITC-angiotensinogen by Renin. The conditions noted are these: inhibitor at final concentration 10 uM. The protocol: Cleavage of FITC-angiotensinogen by Renin produces two products: FITC-AAGCDRVYIHPFHL (FITC-angiotensin) and angiotensinogen protein. To initiate the cleavage reaction, 1 ul Renin (0.1 mg/ml) stock solution may be added to 100 ul FITC-angiotensinogen in 20 mM Tris-HCL, PH 8.5. The final concentration of FITC-angiotensingen may be about 1 uM. […] This confirms the specific cleavage of FITC-angiotensinogen by Renin.
An alternative strategy to label the full length angtensinogen is to delete 16 residues from the N-terminus of angtensinogen. This shorted angtensinogen has a Cys at its N-terminal end and is fused to sumo. Using the same protocol as described above, this fusion protein is expressed, purified and cleaved by Sumo protease to produce the N-terminal 16 residue deleted angtensinogen. Referring to FIG. 7, ligation of the N-terminal 16 residue deleted angtensinogen to the FITC-DRVYIHPFHLVIHNEST-thioester, a slightly different version of FITC-angiotensinogen is produced. […] Cleavage of this FITC-angiotensinogen by Renin may be measured by recording fluorescence polarization signal as a function of time, as shown in FIG. 8. […] This proves that the FITC-angiotensinogen may be used as a substrate for Renin activity assay by recording the fluorescence polarization and the assay may be used to identify its inhibitors.

Chain of ADAM 17 (Homo sapiens, UniProt P01375) (P01375 with tags, fused parts or gaps): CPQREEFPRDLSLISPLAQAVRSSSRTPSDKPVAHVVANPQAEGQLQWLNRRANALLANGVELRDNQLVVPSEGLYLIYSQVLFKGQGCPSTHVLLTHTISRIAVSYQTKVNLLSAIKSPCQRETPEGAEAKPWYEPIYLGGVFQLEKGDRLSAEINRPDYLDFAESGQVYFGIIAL
T1 sequence (P56817 46-501): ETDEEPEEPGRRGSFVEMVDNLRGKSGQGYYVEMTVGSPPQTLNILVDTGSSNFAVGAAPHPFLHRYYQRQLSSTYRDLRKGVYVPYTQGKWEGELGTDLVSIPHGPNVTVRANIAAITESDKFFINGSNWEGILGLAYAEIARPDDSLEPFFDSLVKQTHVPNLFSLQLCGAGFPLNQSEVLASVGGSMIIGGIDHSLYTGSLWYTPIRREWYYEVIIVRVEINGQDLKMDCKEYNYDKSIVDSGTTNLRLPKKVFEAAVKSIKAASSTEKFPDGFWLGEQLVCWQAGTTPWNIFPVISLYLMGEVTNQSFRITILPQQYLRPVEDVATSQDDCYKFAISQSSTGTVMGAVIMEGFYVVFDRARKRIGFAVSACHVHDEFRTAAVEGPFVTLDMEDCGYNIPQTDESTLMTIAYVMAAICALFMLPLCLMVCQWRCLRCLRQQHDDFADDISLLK
Chain of ADAM 17 (Homo sapiens, UniProt P78536) (P78536 215-824): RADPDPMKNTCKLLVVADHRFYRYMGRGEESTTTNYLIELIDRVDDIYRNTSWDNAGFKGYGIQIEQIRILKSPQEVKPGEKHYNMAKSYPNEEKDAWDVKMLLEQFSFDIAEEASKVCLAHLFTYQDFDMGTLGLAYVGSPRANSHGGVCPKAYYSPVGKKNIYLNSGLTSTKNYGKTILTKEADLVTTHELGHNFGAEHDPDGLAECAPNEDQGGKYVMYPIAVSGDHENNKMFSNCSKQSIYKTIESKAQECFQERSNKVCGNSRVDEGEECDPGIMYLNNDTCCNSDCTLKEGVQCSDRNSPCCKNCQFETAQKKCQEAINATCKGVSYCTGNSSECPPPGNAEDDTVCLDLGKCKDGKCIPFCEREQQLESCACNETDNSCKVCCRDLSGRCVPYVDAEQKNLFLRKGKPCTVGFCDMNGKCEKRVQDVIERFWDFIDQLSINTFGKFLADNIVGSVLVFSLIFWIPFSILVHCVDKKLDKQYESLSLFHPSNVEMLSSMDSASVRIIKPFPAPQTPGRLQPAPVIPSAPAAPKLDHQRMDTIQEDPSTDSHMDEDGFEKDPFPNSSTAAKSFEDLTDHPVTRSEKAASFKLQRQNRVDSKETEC

On to `CNC(=O)[C@H](Cc1c[nH]c2ccccc12)NC(=O)[C@@H](CC(=O)NO)CC(C)C` [N-[(2R)-2-(Hydroxamidocarbonylmethyl)-4-methylpentanoyl]-L-tryptophan methylamide], for which the “fluorescence polarization change during cleavage of FITC-[pro-TNF-α] by ADAM 17” value in assay [1] is on record as “little change”.

Turning to `Cc1cc2occ(CN(C)CCN(C)Cc3cn(-c4cccc(C(F)(F)F)c4)c4ccccc34)c(=O)c2cc1C` [TNF-α inhibitor, 6,7-Dimethyl-3-((methyl-(2-(methyl-(1-(3-trifluoromethyl-phenyl)-1H-indol-3-ylmethyl)-amino)-ethyl)-amino)-methyl)-chromen-4-one], the “cleavage rate of FITC-(pro-TNF-α) by ADAM 17” value in assay [2] (200 uM compound pre-incubated with FITC-(pro-TNF-α) for 30 minutes) is recorded as “reduced”. Moreover, the “reduction of the reaction rate (conversion of pro-TNF-α to TNF-α by Adam 17)” value in assay [2] (inhibitor at about 200 μM, FIG. 13) is recorded as “about 40%”. In assay [3], the “cleavage activity of Adam 17 to the peptide substrate” value is recorded as “not affected”.

Turning to KTEEISEVN-Sta-VAEF, the “fluorescence polarization during cleavage of APP365-699-[5-TAMRA] by BACE” value in assay [4] is given as “remains unchanged”.

Take RRPFH-Sta-IHK: the “fluorescence polarization change during cleavage of FITC-angiotensinogen by Renin” value in assay [5] (FITC-angiotensinogen made from N-terminal 16 residue deleted angiotensinogen, FIG. 8 Trace B) is “little change”; in assay [5] (full length FITC-angiotensinogen, FIG. 6 Trace B) it was “little change”.
